Entries after “also recorded” stand apart in the source; their conditions may differ.
Columns and labels:
[1] = tested on: Candida albicans ATCC 10231; assay: Zone of inhibition assay with impregnated polyurethane foam discs; format: cell-based; settings: for Zone of inhibition compared with the other salts (in words): impregnated polyurethane foam, after several daily transfers / over the 9 day assay
Protocol: To evaluate antimicrobial properties of polyurethane foam samples infused with the various chlorhexidine/fatty acid salts, a zone of inhibition assay was performed. In this assay, 1.4% (w/v) of chlorhexidine acetate, chlorhexidine caprate, chlorhexidine laurate, chlorhexidine myristate, chlorhexidine palmitate and chlorhexidine stearate solutions in methanol were prepared. A supply of 8 mm discs were punched out of a sheet of polyurethane foam (Rynel medical grade polyurethane foam) with biopsy punches (Miltex Kai). Several discs were placed in each of six 50 ml centrifuge tubes. Approximately 5 ml of each of the different methanol/chlorhexidine/fatty acid salt solutions was added to each respective tube. The discs were centrifuged for 5 minutes to remove any air bubbles and soaked for 1 hr to infuse the foam discs with the respective chlorhexidine/fatty acid salt. Infused discs were transferred to clean centrifuge tubes and vacuum dried at 25° C. for 24 hrs to remove any residual solvents. Initial concentrations of salts, impregnated into the punches, were determined by dissolving the impregnated foams and by high pressure liquid chromatography (HPLC) analysis using an Agilent Eclipse XDB-CN 3u 4.6×150 mm column with initial mobile phase=65% DI water/0.2% trifluoroacetic acid (TFA): 35% Acetonitrile/0.2% TFA. Chlorhexidine absorbance was read at 253 nm and concentration was calculated via a chlorhexidine calibration curve. […] To perform the zone of inhibition assay on the impregnated polyurethane foam discs, agar plates were prepared by mixing 11 g Mueller-Hinton cation-adjusted broth and 1.5 g agarose in 500 ml DI water. The agar was autoclaved for 15 minutes at 121° C., 15 psi. 10 ml of the still hot, liquid agar was pipetted onto petri dishes. The challenge organism, Candida albicans ATCC 10231, was cultivated in Trypticase soy broth, standard microbiological growth medium (TSB). Sterile cotton swabs were dipped into the undiluted culture and the plated agar was fully inoculated with swabs. The 8 mm polyurethane foam discs were transferred daily to a freshly inoculated agar for 9 days. The zone of inhibition (ZOI) was measured using calipers. Actual ZOI was measured by subtracting the diameter of the foam (when wet) from the zone measured and dividing by 2. The results are presented in Table 6, with a graphical representation of the ZOI in FIG. 2;

[2] = tested on: Pseudomonas aeruginosa ATCC 27853; assay: Basic broth adherence assay on coated polyurethane tubes; format: cell-based
Protocol: The antimicrobial effectiveness of the coated samples was subjected to different durations of DI water extraction by basic broth adherence assay. For each chlorhexidine/fatty acid salt tested, 3 samples of coated tubing were prepared and assayed. To prepare the inoculum, a culture of Pseudomonas aeruginosa ATCC 27853 was used to challenge the coated polyurethane tubes and controls. The negative control used was a length of uncoated polyurethane tube. The challenge microorganism suspension was prepared as follows: approximately three colonies were removed from a secondary working culture plated on Trypticase Soy Agar (TSA) (BD-Falcon) with 5% sheep's blood and added to 10 ml of Trypticase Soy Broth (TSB). The vial was vortexed for approximately 30 seconds and incubated for 4 hours at 37° C. at 100 rpm. Following incubation, the vial was removed and vortexed. The optical density of the organism suspension was read. The inoculum was then diluted in TSB to a concentration of 5×10^4 colony forming units per milliliter (CFU/mL). This concentration was confirmed by the Miles and Misra drop count method.
The basic broth adherence assay was performed in a 96 well micro titer plate. To each well of the micro titer plate containing either a test article or a control, 900 μl of TSB was added. To this, 100 μl of the adjusted inoculum was added (Note: Due to the 1/10 dilution per well, the starting inoculum concentration of each organism was […] for Pseudomonas aeruginosa). The micro titer plates were then sealed via parafilm® around the edges and wrapped in foil to avoid evaporation of liquid and light contact with the samples. The plates were then placed inside a shaker incubator set at 37° C. and 100 rpm for 24 hours. Incubation at 37° C. then continued until the elapse of 7 days, 14 days, and 21 days, respectively, for each of the 3 samples prepared for each chlorhexidine/fatty acid salt.
At the completion of the respective incubation periods, the samples were rinsed, sonicated, the sonicate was plated and adherence was evaluated. More particularly, following incubation, all samples and controls were dip-rinsed twice in phosphate buffered saline (PBS) to remove the surrounding media. After rinsing, test articles were sonicated in micro titer plate wells containing 1 mL of Dey-Engley (DE) neutralizing broth (Difco). The sonication liquid was then serially diluted, and plated onto the surface of DE neutralizing agar. Plates were incubated at 37° C. for 24 to 48 hours and colonies were counted. Recovery counts were recorded as CFU/mL.

[3] = Rate of release of chlorhexidine/fatty acid salts from coated polyurethane tubes into DI water; format: physicochemical; settings: for Cumulative release of the chlorhexidine/fatty acid salts from the coated polyurethane tubes: 1 cm coated tube in DI water, 37° C.
Protocol: A solution of each respective chlorhexidine/fatty acid salt was prepared and used to infuse a sample of elastomeric material. To perform the test, individual samples, 8 cm pieces of polyurethane tube containing a colorant, were surface dip coated in respective solutions of the chlorhexidine/fatty acid salts. The solutions were prepared as follows: 8.6 g of Tecoflex (Noveon, Cleveland, Ohio) was dissolved in 174 g of Tetrahydrofuran and methanol. 5.88 g of chlorhexidine acetate, chlorhexidine laurate, chlorhexidine myristate, chlorhexidine palmitate and chlorhexidine stearate were individually dissolved into the polymer-solvent mixture. The samples were immersed into the solvent-polymer-salt mixture and then dried at room temperature, evaporating the solvent. A polymeric coating was produced on the surface of the tubes. The amounts of chlorhexidine/fatty acid salt adhered per cm of the tube was measured (Table 2) by exhaustively extracting the salt and measuring UV absorbance at 253 nm relative to controls: For each of the samples, the rate of release of chlorhexidine/fatty acid salts into an aqueous solution was determined. To perform the rate of release test, 1 cm from each of the coated polyurethane tubes, were submerged in DeIonized (DI) water and incubated at 37° C. for a period of 28 days to determine the rate of release of the salts from the respective 1 cm samples of coated polyurethane tubing. The water was collected and replaced with fresh water after approximately 2 hours. The water was again collected and replaced with fresh water after the first day and every seven days thereafter. The amount of chlorhexidine/fatty acid salt in the collected water was measured with an Agilent 8453 UV-Vis Diode Array Detector with a manual setup using a cuvette w/path length of 1 cm. Chlorhexidine absorbance was read at 253 nm and concentration was calculated via a calibration curve developed using standards of 1, 5, 10, 20, 30, 35, and 40 μg/mL chlorhexidine acetate in DI Water. The percentage of chlorhexidine/fatty acid salt released from the sample into an aqueous media (percent release) was calculated according to the following equation: Percent release=(cumulative release at that time period/initial content)*100.

[4] = Day 1, daily transfer to fresh agar
[5] = Day 2, daily transfer to fresh agar
[6] = Day 3, daily transfer to fresh agar
[7] = Day 4, daily transfer to fresh agar
[8] = Day 7, daily transfer to fresh agar
[9] = Day 8, daily transfer to fresh agar
[10] = Day 9, daily transfer to fresh agar

Structure (SMILES)	ZOI produced by impregnated polyurethane foam punches against Candida albicans [1, 4] [mm]	ZOI produced by impregnated polyurethane foam punches against Candida albicans [1, 5] [mm]	ZOI produced by impregnated polyurethane foam punches against Candida albicans [1, 6] [mm]	ZOI produced by impregnated polyurethane foam punches against Candida albicans [1, 7] [mm]	ZOI produced by impregnated polyurethane foam punches against Candida albicans [1, 8] [mm]	ZOI produced by impregnated polyurethane foam punches against Candida albicans [1, 9] [mm]	ZOI produced by impregnated polyurethane foam punches against Candida albicans [1, 10] [mm]	Log10 reduction of adhered Pseudomonas aeruginosa onto the surface of coated polyurethane tubes ([2]; 7 days)	Log10 reduction of adhered Pseudomonas aeruginosa onto the surface of coated polyurethane tubes ([2]; 21 days)	Cumulative release of the chlorhexidine/fatty acid salts from the coated polyurethane tubes ([3]; Day 1) [g]	Cumulative release of the chlorhexidine/fatty acid salts from the coated polyurethane tubes ([3]; Day 7) [g]	Cumulative release of the chlorhexidine/fatty acid salts from the coated polyurethane tubes ([3]; Day 14) [g]	Cumulative release of the chlorhexidine/fatty acid salts from the coated polyurethane tubes ([3]; Day 21) [g]	Cumulative release of the chlorhexidine/fatty acid salts from the coated polyurethane tubes ([3]; Day 28) [g]	Zone of inhibition compared with the other salts (in words) [1]	further results
CCCCCCCCCCCCCC(=O)O.CCCCCCCCCCCCCC(=O)O.N=C(NCCCCCCNC(=N)NC(=N)Nc1ccc(Cl)cc1)NC(=N)Nc1ccc(Cl)cc1 [Chlorhexidine Myristate, chlorhexidine dimyristate]	27	34	32	18	16	16	18	7	7	40	98	133	147	151		Release from the coated sample over the test (in words) ([3]; FIG. 1, 28 days in DI water): continually released at an appreciable rate throughout the duration of the test; Amount released from the coated sample over the 7 day period ([3]; from 21 to 28 days): 4 µg
CCCCCCCCCCCCCCCCCC(=O)O.CCCCCCCCCCCCCCCCCC(=O)O.N=C(NCCCCCCNC(=N)NC(=N)Nc1ccc(Cl)cc1)NC(=N)Nc1ccc(Cl)cc1 [Chlorhexidine Stearate, chlorhexidine distearate]	11	17	16	13	14	8	8	0	0	30	76	87	95	99	zones of inhibition that were smaller	Log10 reduction of adhered Pseudomonas aeruginosa onto the surface of coated polyurethane tubes ([2]; 14 days): 0; Inhibition of adherence / antimicrobial effect against Pseudomonas aeruginosa (in words) ([2]; coated polyurethane tubes compared to uncoated control): did not provide an antimicrobial effect beyond the first day; also recorded: did not inhibit adherence of the challenge organism; Percent release of the initial salt concentration from the coated sample ([3]; after 28 days (FIG. 1)): approximately 40%
CCCCCCCCCC(=O)O.CCCCCCCCCC(=O)O.N=C(NCCCCCCNC(=N)NC(=N)Nc1ccc(Cl)cc1)NC(=N)Nc1ccc(Cl)cc1 [Chlorhexidine Caprate, chlorhexidine caprate]	14	18	18	10	7	9	7								zones of inhibition that were smaller	Percent release of the initial salt concentration from the coated sample ([3]; after approximately 7 days (FIG. 1)): 70%
